Test results reported in patent publication US20240425496A1, “AZETIDINYL PYRIMIDINES AND USES THEREOF” (Aerie Pharmaceuticals, Inc., priority 2021, published 2024).

Key:
JAK1 = JAK1 (Homo sapiens (Human), UniProt P23458); assay: JAK kinase assay (KINASE-GLO luminescent), JAK1 enzyme; format: biochemical; settings: JAK1 enzyme 10 nM, Abl peptide substrate
In short: (§1)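 Kinase-Glo luminescence measures ATP remaining after 75 min at room temperature; ATP 2 μM in 4× stock. 11-point 1:5 dilutions, 2.5% DMSO final. Percent of DMSO control per concentration, IC50 by 4-parameter logistic fit.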

TYK2 = TYK2 (Homo sapiens (Human), UniProt P29597); assay: JAK kinase assay (KINASE-GLO luminescent), TYK2 enzyme; format: biochemical; settings: TYK2 enzyme 10 nM, Abl peptide substrate
TYK2, sequence (P29597 whole entry, species assumed): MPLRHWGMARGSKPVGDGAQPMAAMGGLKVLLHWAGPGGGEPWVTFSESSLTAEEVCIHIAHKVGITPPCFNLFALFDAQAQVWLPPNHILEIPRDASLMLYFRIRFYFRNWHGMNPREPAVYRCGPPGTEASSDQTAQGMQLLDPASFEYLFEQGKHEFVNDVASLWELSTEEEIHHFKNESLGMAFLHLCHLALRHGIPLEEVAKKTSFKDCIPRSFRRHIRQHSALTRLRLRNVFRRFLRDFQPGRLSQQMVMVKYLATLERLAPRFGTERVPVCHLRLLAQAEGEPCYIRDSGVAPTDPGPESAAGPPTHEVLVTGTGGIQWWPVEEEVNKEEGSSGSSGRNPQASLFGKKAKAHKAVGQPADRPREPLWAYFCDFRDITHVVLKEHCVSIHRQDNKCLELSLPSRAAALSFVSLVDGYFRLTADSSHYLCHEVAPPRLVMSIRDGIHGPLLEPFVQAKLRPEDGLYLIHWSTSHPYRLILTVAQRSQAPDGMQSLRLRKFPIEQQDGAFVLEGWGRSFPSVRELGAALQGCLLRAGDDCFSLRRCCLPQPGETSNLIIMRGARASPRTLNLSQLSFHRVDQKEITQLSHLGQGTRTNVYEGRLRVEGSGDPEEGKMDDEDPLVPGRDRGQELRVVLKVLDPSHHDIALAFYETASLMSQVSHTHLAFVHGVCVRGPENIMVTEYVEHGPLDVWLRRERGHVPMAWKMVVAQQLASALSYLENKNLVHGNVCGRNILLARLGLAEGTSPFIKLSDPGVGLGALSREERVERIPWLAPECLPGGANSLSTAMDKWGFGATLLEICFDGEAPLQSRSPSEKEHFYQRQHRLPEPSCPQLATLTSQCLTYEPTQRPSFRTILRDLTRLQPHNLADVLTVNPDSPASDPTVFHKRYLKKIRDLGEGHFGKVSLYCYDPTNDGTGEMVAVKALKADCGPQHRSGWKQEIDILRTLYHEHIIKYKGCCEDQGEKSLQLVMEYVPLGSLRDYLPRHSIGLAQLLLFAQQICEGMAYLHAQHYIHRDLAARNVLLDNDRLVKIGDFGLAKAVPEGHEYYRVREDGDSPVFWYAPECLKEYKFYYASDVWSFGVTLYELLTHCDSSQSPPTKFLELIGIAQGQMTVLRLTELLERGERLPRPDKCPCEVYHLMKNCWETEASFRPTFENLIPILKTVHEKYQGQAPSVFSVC
In short: as §1

JAK1, sequence (P23458 whole entry, species assumed): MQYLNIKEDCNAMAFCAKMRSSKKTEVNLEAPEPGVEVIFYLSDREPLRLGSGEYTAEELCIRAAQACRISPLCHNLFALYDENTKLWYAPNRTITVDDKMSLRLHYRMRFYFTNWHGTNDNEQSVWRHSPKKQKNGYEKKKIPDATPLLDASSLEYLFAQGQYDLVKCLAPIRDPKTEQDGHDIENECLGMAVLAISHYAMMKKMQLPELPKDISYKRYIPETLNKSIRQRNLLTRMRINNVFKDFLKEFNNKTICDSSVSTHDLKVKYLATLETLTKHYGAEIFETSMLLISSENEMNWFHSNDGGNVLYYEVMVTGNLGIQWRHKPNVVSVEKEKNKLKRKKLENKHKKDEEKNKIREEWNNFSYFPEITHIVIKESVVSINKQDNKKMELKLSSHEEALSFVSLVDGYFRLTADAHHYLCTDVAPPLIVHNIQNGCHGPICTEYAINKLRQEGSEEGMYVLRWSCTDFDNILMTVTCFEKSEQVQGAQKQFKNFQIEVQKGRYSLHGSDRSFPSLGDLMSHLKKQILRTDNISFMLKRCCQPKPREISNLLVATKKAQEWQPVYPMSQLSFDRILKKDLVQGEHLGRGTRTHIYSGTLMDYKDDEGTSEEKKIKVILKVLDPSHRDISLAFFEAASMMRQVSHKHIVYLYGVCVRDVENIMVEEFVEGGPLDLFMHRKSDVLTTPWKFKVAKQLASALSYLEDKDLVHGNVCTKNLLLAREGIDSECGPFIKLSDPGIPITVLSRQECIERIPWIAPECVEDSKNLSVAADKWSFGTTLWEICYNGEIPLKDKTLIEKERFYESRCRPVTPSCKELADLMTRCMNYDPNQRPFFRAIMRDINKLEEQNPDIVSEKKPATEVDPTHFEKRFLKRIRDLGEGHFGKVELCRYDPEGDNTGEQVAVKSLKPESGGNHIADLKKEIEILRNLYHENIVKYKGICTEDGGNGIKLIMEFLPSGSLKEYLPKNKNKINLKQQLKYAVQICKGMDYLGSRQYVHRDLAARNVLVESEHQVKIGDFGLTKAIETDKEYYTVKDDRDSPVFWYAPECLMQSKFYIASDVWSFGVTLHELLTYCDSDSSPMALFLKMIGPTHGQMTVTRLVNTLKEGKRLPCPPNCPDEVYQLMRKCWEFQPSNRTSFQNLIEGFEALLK

| SMILES | IC50 (JAK1) [µM] | IC50 (TYK2) [µM] |
| --- | --- | --- |
| Cc1cc(Nc2ncc(C)c(N3CC(CC#N)(N4CCC(CS(C)(=O)=O)CC4)C3)n2)sn1 [E47] | < 0.01 | < 0.01 |
| COC1CCN(C2(CC#N)CN(c3nc(Nc4cc(C)ns4)ncc3C)C2)CC1 [E69a] | < 0.01 | < 0.01 |
| Cc1cc(Nc2ncc(C)c(N3CC(CC#N)(N4CCN(C)C5(COC5)C4)C3)n2)sn1 [E46] | < 0.02 | < 0.01 |
| Cc1cc(Nc2ncc(C)c(N3CC(CC#N)(N4CC(C5CC5)C4)C3)n2)sn1 [E11] | < 0.01 | < 0.01 |
| Cc1cc(Nc2ncc(C)c(N3CC(CC#N)(N4CCN5C[C@@H](F)C[C@H]5C4)C3)n2)sn1 [E52B] | < 0.01 | < 0.01 |
| Cc1cc(Nc2ncc(C)c(N3CC(CC#N)(N4CCn5c(cnc5C)C4)C3)n2)sn1 [E91a] | < 0.01 | < 0.01 |
| Cc1cc(Nc2ncc(C)c(N3CC(CC#N)(N4CCN(C5CC5)CC4)C3)n2)sn1 [E54] | < 0.01 | < 0.01 |
| Cc1cc(Nc2ncc(C)c(N3CC(CC#N)(N4CCN(CC(C)C)CC4)C3)n2)sn1 [E51] | < 0.015 | < 0.02 |
| Cc1cc(Nc2ncc(C)c(N3CC(CC#N)(N4CCN5CC6CC5(C6)C4)C3)n2)sn1 [E86a] | < 0.1 | < 0.02 |
| Cc1cc(Nc2ncc(C)c(N3CC(CC#N)(N4CCCCCC4)C3)n2)sn1 [E33] | < 0.01 | < 0.01 |
| Cc1cc(Nc2ncc(C)c(N3CC(CC#N)(N(C)C4CN(C)C4)C3)n2)sn1 [E37] | < 0.05 | < 0.05 |
| Cc1cc(Nc2ncc(C)c(N3CC(CC#N)(N4C[C@@H]5OCCO[C@@H]5C4)C3)n2)sn1 [E92a] | < 0.01 | < 0.01 |
| Cc1cc(Nc2ncc(C)c(N3CC(CC#N)(N4CCN(C)C(CCF)C4)C3)n2)sn1 (centres unmarked) [E117-R] | < 0.01 | < 0.005 |
| Cc1cc(Nc2ncc(C)c(N3CC(CC4CC4)C3)n2)sn1 [E109a] | < 0.05 | < 0.01 |
| Cc1cc(Nc2ncc(C3CC3)c(N3CC(CC#N)(N4CCCCC4)C3)n2)sn1 [E32] | < 0.05 | < 0.01 |
| Cc1cc(Nc2ncc(C)c(N3CC(CC#N)(N4CCCN5CCC[C@H]5C4)C3)n2)sn1 [E87a] | < 0.01 | < 0.01 |
| Cc1cc(Nc2ncc(C)c(N3CC(CC#N)(N4CCN5CCC5C4)C3)n2)sn1 (centres unmarked) [E89a] | < 0.1 | < 0.05 |
| CCOC(=O)CC1(N2CCCCC2)CN(c2nc(Nc3cc(C)ns3)ncc2C)C1 [E65a] | < 1 | < 0.05 |
| Cc1cc(Nc2ncc(C)c(N3CC(CC#N)(N4CCN5C[C@H](F)C[C@@H]5C4)C3)n2)sn1 [E75a] | < 0.05 | < 0.01 |
| Cc1cc(Nc2ncc(C)c(N3CC(CC(F)F)C3)n2)sn1 [E117-U] | < 0.025 | < 0.01 |
| Cc1cnc(Nc2ccc3c(c2)CN(C)C3)nc1N1CC(CC#N)(N2CCC3(CC2)CC3)C1 [E114] | < 0.02 | < 0.02 |
| Cc1cc(Nc2ncc(C)c(N3CC(CC#N)(N4CCOCC4)C3)n2)sn1 [E9] | < 0.01 | < 0.01 |
| Cc1cc(Nc2ncc(C)c(N3CC(N4CCN5C[C@H](F)C[C@H]5C4)C3)n2)sn1 [E110a] | < 0.05 | < 0.01 |

| SMILES | IC50 (JAK1) [µM] | IC50 (TYK2) [µM] |
| --- | --- | --- |
| Cc1cnc(Nc2cnn(C)c2)nc1N1CC2(C1)CC2(F)F [E82] | < 0.02 | < 0.02 |
| Cc1cc(Nc2ncc(C)c(N3C4CC3CN(CCC#N)C4)n2)sn1 [E117-AD] | < 1 | < 1 |
| Cc1cc(Nc2ncc(C)c(N3CC(CC#N)(N4CCN(C)[C@@H](C)C4)C3)n2)sn1 [E52A] | < 0.02 | < 0.01 |
| Cc1cc(Nc2ncc(C3CC3)c(N3CC(CC#N)(N4CCN5C[C@H](F)C[C@H]5C4)C3)n2)sn1 [E102a] | < 0.01 | < 0.01 |
| Cc1cc(Nc2ncc(C)c(N3CC(CC#N)(N4CCN(CC5CC5)CC4)C3)n2)sn1 [E48] | < 0.01 | < 0.01 |
| Cc1cc(Nc2ncc(C)c(N3CC(CC#N)(N4CCN(CCF)CC4)C3)n2)sn1 [E55a] | < 0.01 | < 0.01 |
| Cc1cc(Nc2ncc(C)c(N3CC(CC#N)(N4CCN5CC6(CC6)C[C@H]5C4)C3)n2)sn1 [E117-G] | < 0.005 | < 0.005 |
| Cc1cc(Nc2ncc(C)c(N3CC(CC#N)(N4CCCN(C)CC4)C3)n2)sn1 [E52G] | < 0.1 | < 0.05 |
| Cc1cc(Nc2ncc(C)c(N3CC(CC#N)(N4CCN5CCCC[C@H]5C4)C3)n2)sn1 [E80a] | < 0.01 | < 0.01 |
| Cc1cc(Nc2ncc(C)c(N3CC(CC#N)(N4CCCC5(C4)CC5(F)F)C3)n2)sn1 (centres unmarked) [E27] | < 0.01 | < 0.01 |
| Cc1cc(Nc2ncc(C)c(N3CC(CC#N)(N4C[C@H]5CN(C)C[C@H]5C4)C3)n2)sn1 [E104a] | < 0.1 | < 0.1 |
| Cc1cc(Nc2nccc(N3CC(CC#N)(N4CCCCC4)C3)n2)sn1 [E45] | < 0.2 | < 0.02 |
| Cc1cc(Nc2ncc(C)c(N3CC(CC#N)(OC4CC5(C4)CC5(F)F)C3)n2)sn1 (centres unmarked) [E106a] | < 0.01 | < 0.01 |
| Cc1cc(Nc2ncc(F)c(N3CC(CC#N)(N4CCCCC4)C3)n2)sn1 [E74a] | < 0.5 | < 0.02 |
| Cc1cnc(Nc2cc(C3CC3)ns2)nc1N1CC(CC#N)(N2CCN(C)CC2)C1 [E18] | < 0.005 | < 0.005 |
| C#CCC1(O)CN(c2nc(Nc3cc(C)ns3)ncc2C)C1 [E63a] | < 0.1 | < 0.05 |
| CCS(=O)(=O)C1CN(C2(CC#N)CN(c3nc(Nc4cc(C)ns4)ncc3C)C2)C1 [E96a] | < 0.1 | < 0.05 |
| Cc1cc(Nc2ncc(C)c(N3CC(CC#N)(N4CC(C)CC5(CC5)C4)C3)n2)sn1 (centres unmarked) [E23] | < 0.01 | < 0.01 |
| Cc1cc(Nc2ncc(C)c(N3CC(CC#N)(N4CC5CN(C)CC5C4)C3)n2)sn1 (centres unmarked) [E105a] | < 0.1 | < 0.05 |
| Cc1cc(Nc2ncc(C)c(N3CC(CC#N)(N4C[C@H](C)N(C)[C@@H](C)C4)C3)n2)sn1 [E44] | < 0.05 | < 0.02 |
| Cc1cc(Nc2ncc(C)c(N3CC(CC#N)(N4CCN(C)C(C)C4)C3)n2)sn1 (centres unmarked) [E36] | < 0.01 | < 0.01 |
| Cc1cc(Nc2ncc(C)c(N3CC(CC#N)(N4CC5CCC(C4)N5C)C3)n2)sn1 [E30] | < 0.05 | < 0.01 |
| Cc1cc(Nc2ncc(C)c(N3CC(CCF)(N4CCN5C[C@H](F)C[C@H]5C4)C3)n2)sn1 [E117-A] | < 0.05 | < 0.01 |

Other lines, results leading:

| IC50 (JAK1) [µM] | IC50 (TYK2) [µM] | SMILES |
| --- | --- | --- |
| < 0.05 | < 0.01 | Cc1cc(Nc2ncc(C)c(N3CC(CC#N)(N4CCN5C[C@H](C)C[C@H]5C4)C3)n2)sn1 [E117a] |
| > 1.5 | > 2 | Cc1cnc(Nc2cnn(C)c2)nc1N1CC(CC#N)(N[C@H]2CC[C@H](NC(=O)OC(C)(C)C)C2)C1 [E305] |
| < 0.02 | < 0.01 | Cc1cnc(Nc2ccccc2)nc1N1CC(CC#N)(N2CCN3CCCC[C@H]3C2)C1 [E216-F] |
| < 0.01 | < 0.01 | [2H]C([2H])([2H])n1cc(Nc2ncc(C)c(N3CC(CC#N)(N4CCN5C[C@H](F)C[C@H]5C4)C3)n2)cn1 [E156a] |
| < 0.02 | < 0.05 | Cc1cnc(Nc2cccc(CN(C)C)c2)nc1N1CC(C)(NC(=O)c2cccc(F)c2)C1 [E310] |
| < 0.01 | < 0.05 | CCC1(NC(=O)c2cccc(F)c2)CN(c2nc(Nc3cnn(C)c3)ncc2C)C1 [E318C] |
| < 0.01 | < 0.01 | Cc1cc(Nc2ncc(C)c(N3CC(CC#N)(NC(=O)c4cccc(F)c4F)C3)n2)sn1 [E312] |
| < 0.07 | < 0.03 | Cc1cnc(Nc2ccccc2)nc1N1CC(CC#N)(N2CCN(C)CC2)C1 [E216-N] |
| < 0.02 | < 0.01 | Cc1cc(Nc2ncc(C)c(N3CC(CC#N)(NCC4CC4(F)F)C3)n2)sn1 (centres unmarked) [E357] |
| < 0.01 | < 0.01 | Cc1cnc(Nc2cnn(C)c2)nc1N1CC(CC#N)(N2CCN3CC(C)(C)C[C@H]3C2)C1 [E173a] |
| < 0.02 | < 0.02 | Cc1cc(Nc2ncc(C)c(N3CC(CC#N)(NC(=O)c4ccccn4)C3)n2)sn1 [E296] |
| < 0.1 | < 0.05 | Cc1cnc(Nc2ccc(CN(C)C)cc2)nc1N1CC(C)(NC(=O)c2cccc(F)c2)C1 [E308] |
| < 0.1 | < 0.15 | Cc1cc(Nc2ncc(C)c(N3CC(C)(CNC(=O)C4CCNCC4(F)F)C3)n2)sn1 (centres unmarked) [E285] |
| < 0.02 | < 0.01 | Cc1cc(Nc2ncc(C)c(N3CC(CC#N)(NS(C)(=O)=O)C3)n2)sn1 [E291, N-(3-(cyanomethyl)-1-(5-methyl-2-((3-methylisothiazol-5-yl)amino)pyrimidin-4-yl)azetidin-3-yl)methanesulfonamide] |
| < 0.01 | < 0.01 | Cn1cc(Nc2ncc(Cl)c(N3CC(CC#N)(N4CCN5C[C@H](F)C[C@H]5C4)C3)n2)cn1 [E163a] |
| < 0.05 | < 0.05 | Cc1cnc(Nc2cccnc2)nc1N1CC(CC#N)(N2CCN3CCCC[C@H]3C2)C1 [E216-T] |
| < 0.02 | < 0.05 | Cc1cc(Nc2ncc(C)c(N3CC(CC#N)(NC(=O)c4cncc(F)c4)C3)n2)sn1 [E353] |
| < 0.01 | < 0.01 | Cc1cc(Nc2ncc(C)c(N3CC(CC#N)(NC(=O)C4CCCC(F)(F)C4)C3)n2)sn1 (centres unmarked) [E356] |
| < 0.01 | < 0.01 | Cc1cnc(Nc2cnn(C)c2)nc1N1CC(CC(F)F)(C2CC2)C1 [E165a] |
| < 0.05 | < 0.01 | Cc1cnc(Nc2ccc(N3CCOCC3)cc2)nc1N1CC(CC#N)(N2CCN(C)CC2)C1 [E118] |
| < 0.05 | < 0.05 | COc1ccc(CNC2(CC#N)CN(c3nc(Nc4cc(C)ns4)ncc3C)C2)cc1 [E288, 2-(3-((4-methoxybenzyl)amino)-1-(5-methyl-2-((3-methylisothiazol-5-yl)amino)pyrimidin-4-yl)azetidin-3-yl)acetonitrile] |
